Measured values from PubChem BioAssay AID602211 (Sanford-Burnham Center for Chemical Genomics, 2012).
Activity calls are given as the source filed them.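 Rule for the calls: active = mean IC50 at or below 10 µM; inactive = the rest.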

Tested on: H9c2 cardiomyocytes, H2O2 protection, ATPLite viability, 2 h
Assay: H2O2-induced H9c2 cell death suppression – ATPLite luminescence, set 2, dose response (AID 602211);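 note: potency is for protection so actives keep ATP signal up against peroxide killing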

Row | SMILES | IC50
1 | O=C(NCC1CCCO1)C(c1ccc(F)cc1)N(C(=O)Cn1nnc(-c2ccc(F)cc2)n1)c1cccc(O)c1 (stereo not drawn) | 4.48 µM
2 | COC(=O)c1ccccc1NC(=O)c1nc2nc(C)cc(C)n2n1 | 31.2 µM (inactive)
3 | Cc1nn(-c2ccccc2)c(C)c1/C=N/NC(=O)c1cc(C(C)(C)C)[nH]n1 | 26.5 µM (inactive)
4 | COc1cccc(C(=O)Nc2cc(C)c3c(=O)oc4ccccc4c3n2)c1 | 7.02 µM
5 | Cn1c2ccccc2c2cc(/C=N/NC(=O)c3cc(O)ccc3O)ccc21 | > 79 µM (inactive)
6 | Cc1nc(SCC(=O)N2CCN(c3ccccc3)CC2)c2oc3ccccc3c2n1 | 3.43 µM
7 | COc1cc(-c2cc(C(=O)Nc3cccc(C(C)=O)c3)c3ccccc3n2)cc(OC)c1OC | 3.59 µM
8 | COc1ccc(OC)c(NC(=O)c2sc3ncnc(N4CCN(c5ccccn5)CC4)c3c2C)c1 | 16.2 µM (inactive)
9 | O=C(NC1CCCCC1)C(c1ccc2ncccc2c1)N(Cc1ccco1)C(=O)c1ccc2c(c1)OCCO2 (stereo not drawn) | 10.8 µM (inactive)
10 | COc1ccc(C(C(=O)NCc2ccccc2)N(Cc2cccs2)C(=O)c2cnccn2)cc1 (stereo not drawn) | 25 µM (inactive)
11 | COCCCN(Cc1ccco1)C(=O)Cn1ncc2c([nH]c3ccccc32)c1=O | 10.9 µM (inactive)
12 | CCOC(=O)c1cc2c(=O)n3ccccc3nc2n(Cc2ccco2)c1=NC(=O)c1cccnc1 | 19 µM (inactive)
13 | CC(=O)NCCNc1nc2c(-c3ccccc3)nnn2c2ccccc12 | 2.56 µM
14 | CCn1nc(C(=O)NNC(=O)c2cc(Cl)ccc2OC)c2ccccc2c1=O | 30 µM (inactive)
15 | O=c1c2ccccc2nc2c3ccccc3c(NCCO)nn12 | 20.3 µM (inactive)
16 | c1cc2[nH]snc2c2nc(C3CC3)nc12 | 7.56 µM
17 | CNC(=O)c1ccc(-c2sc3nc(N4CCOCC4)c4c(c3c2N)CCCC4)o1 | 11.6 µM (inactive)
18 | COc1cccc(-c2cnc3c(NC=O)cc(-c4cc(C)c(O)c(C)c4)cn23)c1 | 10.2 µM (inactive)
19 | COc1cc(OC)c(-c2nn3c(-c4ccco4)nnc3s2)cc1OC | 4.56 µM
20 | COc1cccc(OC)c1C(=O)Nc1cc(C)nn1-c1nc2ccccc2[nH]1 | 4.1 µM
21 | CC(C)CC(C(=O)NC1CCCCC1)N(Cc1cccs1)C(=O)c1snc(C(N)=O)c1N (stereo not drawn) | 10.2 µM (inactive)
22 | COc1ccc(-c2cc(C(=O)NC(C)c3ccccn3)c3ccccc3n2)cc1OC (stereo not drawn) | 5.39 µM
23 | COc1cccc(-c2cnc3c(NC=O)cc(-c4ccc(O)c(OC)c4)cn23)c1 | 5.89 µM

Row | SMILES | IC50
24 | CC(C)N1C(=O)S/C(=C/c2ccc3c(c2)n(C)c(=O)n3C)C1=O | 1.71 µM
25 | COc1cc(/C=C/C(=O)Nc2ccc3nc4n(c(=O)c3c2)CCCC4)cc(OC)c1OC | 13.3 µM (inactive)
26 | COc1ccc2c(c1OC)c(=O)n1c3ccc(OC(C)C(=O)NCCN4CCOCC4)cc3c3ccnc2c31 (stereo not drawn) | 13.7 µM (inactive)
27 | O=CNc1cc(-c2ccc(C(=O)NC3CC3)cc2)cn2c(-c3ccc(F)c(Cl)c3)cnc12 | 5.46 µM
28 | Cc1nc(N2CCN(c3ccccn3)CC2)c2c(C)c(C(=O)Nc3ccccc3F)sc2n1 | 4.04 µM
29 | COc1ccc(C(=O)Nc2nc(-c3ccccn3)cs2)cc1S(=O)(=O)N1CCOCC1 | 11.9 µM (inactive)
30 | Cc1[nH]c2ccccc2c1/C=N/NC(=O)c1cc(-c2cccs2)[nH]n1 | 3.62 µM
31 | O=C/C(=C\Nc1ccccn1)c1nc2cc(Cl)ccc2o1 | 9.92 µM
32 | COCCn1cnc2c(c1=O)c1nc3ccccc3nc1n2/N=C/c1cccc(OC)c1 | 13.6 µM (inactive)
33 | COC(=O)c1cc2c(-c3ccccc3)cc3ccccn3c-2c1C(=O)OC | 6.44 µM
34 | Cc1ccc(-c2nn3c(-c4ccco4)nnc3c3ccccc23)cc1S(=O)(=O)NCC1CCCO1 (stereo not drawn) | 10.6 µM (inactive)
35 | CCC1(CC)NC(=O)N(CC(=O)OCC(=O)Nc2ccccc2[N+](=O)[O-])C1=O | 37.3 µM (inactive)
36 | CCOC(=O)C(Cc1ccc(NC(=O)/C(=C/c2ccc(OC(C)=O)cc2)NC(C)=O)cc1)N1C(=O)c2ccccc2C1=O (stereo not drawn) | 2.78 µM
37 | C[C@H](CO)N1C[C@H](C)[C@@H](CN(C)S(=O)(=O)c2ccccc2)Oc2ccc(NC(=O)Nc3ccccc3)cc2C1=O | 16.6 µM (inactive)
38 | Cc1ncc(CO)c2c1Oc1nc(-c3ccccc3)nc(SCC(=O)N3CCCCC3)c1C2 | > 79 µM (inactive)
39 | NC(=O)c1ccc(Nc2nnc(-c3ccc(O)cc3)c3ccccc23)cc1 | 14.7 µM (inactive)
40 | c1ccc(-c2nc(-n3ccnc3)nc(-n3ccnc3)n2)cc1 | 4.14 µM
41 | COc1ccc(CN(C)C(=O)C(Cc2ccccc2)NC(=O)c2ccccc2)cc1F (stereo not drawn) | 2.67 µM
42 | CC(C)c1ccccc1NC(=O)COC(=O)c1c2c(nc3ccccc13)CCN(Cc1ccccc1)C2 | 5.25 µM
43 | CCOC(=O)N1CCC(n2c(SCC(=O)N3CCC(C)CC3)nc3ccccc3c2=O)CC1 | > 79 µM (inactive)
44 | O=C(Nc1ccc(C(=O)N2CCOCC2)cc1)c1cnn2c(C(F)F)cc(-c3ccccc3)nc12 | 2.8 µM
45 | Cc1ccc(C)c(NC(=O)C(Sc2nc3ccccc3c(=O)n2CC(C)C)c2ccccc2)c1 (stereo not drawn) | 0.35 µM
46 | Cc1ccc2nsnc2c1S(=O)(=O)N(Cc1ccco1)Cc1cc2cccc(C)c2[nH]c1=O | 13.2 µM (inactive)

Row | SMILES | IC50
47 | CCC(c1nnnn1Cc1ccccc1)N1CCC(n2c(=O)[nH]c3ccccc32)CC1 (stereo not drawn) | > 79 µM (inactive)
48 | COc1cc(-c2cc(NC(C)=O)c3ncc(-c4cc(OC)c(OC)c(OC)c4)n3c2)cc(OC)c1OC | 3.85 µM
49 | COc1cc(/C=N/NC(=O)NC23CC4CC(CC(C4)C2)C3)ccc1OCC(N)=O | 2.84 µM
50 | COC(=O)c1ccc(C(=O)OC)c(NC(=O)COC(=O)C23CC4CC(CC(O)(C4)C2)C3)c1 | 3.4 µM
51 | CC(C)C1Nc2ccc(C(=O)N3CCN(c4ccccn4)CC3)cc2NC1=O (stereo not drawn) | 22.9 µM (inactive)
52 | COc1cc2c(C#CCCCO)c(-c3ccsc3)oc(=O)c2cc1OC | 2.3 µM
53 | COc1cc(NC(=O)c2cc([N+](=O)[O-])ccc2NC(=O)CN2CCN(c3ccccn3)CC2)cc(OC)c1 | 2.58 µM
54 | CC(=O)Nc1ccc(Nc2nc(-c3sc(NC(C)=O)nc3C)cs2)cc1 | 12.2 µM (inactive)
55 | COC(=O)c1ccc(C(C(=O)NCc2ccccc2)N(Cc2cccs2)C(=O)c2cnccn2)cc1 (stereo not drawn) | 5.53 µM
56 | Cn1c(=O)c2[nH]c(NN=Cc3cccc(Br)c3)nc2n(C)c1=O | 4.39 µM
57 | COc1cc(OC)cc(C(=O)Nc2ccc(-c3nc4ccccc4o3)cc2)c1 | > 79 µM (inactive)
58 | COc1ccccc1NC(=O)c1cc(-c2ccc(OC)c(OC)c2)nc2ccccc12 | 4.06 µM
59 | CC(=O)Nc1cccc(-c2cc(NC=O)c3ncc(-c4ccc(C(C)=O)cc4)n3c2)c1 | 6.5 µM
60 | O=C(NC1CCCCC1)C(c1ccc2ncccc2c1)N(Cc1cccs1)C(=O)c1cccs1 (stereo not drawn) | 1.96 µM
61 | O=C(Nc1cccnc1)c1sc(Nc2ccccc2)nc1-c1ccccc1 | 8.72 µM
62 | O=C(CNC(=O)c1nc[nH]c1C(=O)NCC(=O)OCc1ccccc1)OCc1ccccc1 | 0.38 µM
63 | Cn1c(C(=O)NCCc2ccsc2)cc2c(=O)n(C)c3ccccc3c21 | 4.74 µM
64 | c1cncc(-c2nc(NCC3COc4ccccc4O3)c3ccccc3n2)c1 (stereo not drawn) | > 79 µM (inactive)
65 | Cc1cc(C)c2c(N)c(C(=O)N/N=C/c3cccnc3)sc2n1 | 12.1 µM (inactive)
66 | Cn1c(=O)c2[nH]c(NN=Cc3ccc(Br)cc3)nc2n(C)c1=O | 5.14 µM
67 | O=C(CNC(=O)c1[nH]cnc1C(=O)NC(c1ccccc1)c1ccccc1)OCc1ccccc1 | 10.1 µM (inactive)
68 | CCOC(=O)N1CCc2c(sc(NC(=O)CN3CCOCC3)c2C(=O)Nc2ccccc2)C1 | 39.9 µM (inactive)
